Measurements from paper PMC4008261, “Rewiring of regenerated axons by combining treadmill training with semaphorin3A inhibition” (Molecular Brain, 2014).

Assays:
semaphorin3A = molecular target: T1, semaphorin3A (Homo sapiens, UniProt Q14563); assay: Growth cone collapse assay, E8 chick DRG; format: cell-based; design: expressed in transfected cells; host or cells: COS7; conditions: read-out: semaphorin3A inhibiting activity, IC50
T1 sequence (Q14563 21-771): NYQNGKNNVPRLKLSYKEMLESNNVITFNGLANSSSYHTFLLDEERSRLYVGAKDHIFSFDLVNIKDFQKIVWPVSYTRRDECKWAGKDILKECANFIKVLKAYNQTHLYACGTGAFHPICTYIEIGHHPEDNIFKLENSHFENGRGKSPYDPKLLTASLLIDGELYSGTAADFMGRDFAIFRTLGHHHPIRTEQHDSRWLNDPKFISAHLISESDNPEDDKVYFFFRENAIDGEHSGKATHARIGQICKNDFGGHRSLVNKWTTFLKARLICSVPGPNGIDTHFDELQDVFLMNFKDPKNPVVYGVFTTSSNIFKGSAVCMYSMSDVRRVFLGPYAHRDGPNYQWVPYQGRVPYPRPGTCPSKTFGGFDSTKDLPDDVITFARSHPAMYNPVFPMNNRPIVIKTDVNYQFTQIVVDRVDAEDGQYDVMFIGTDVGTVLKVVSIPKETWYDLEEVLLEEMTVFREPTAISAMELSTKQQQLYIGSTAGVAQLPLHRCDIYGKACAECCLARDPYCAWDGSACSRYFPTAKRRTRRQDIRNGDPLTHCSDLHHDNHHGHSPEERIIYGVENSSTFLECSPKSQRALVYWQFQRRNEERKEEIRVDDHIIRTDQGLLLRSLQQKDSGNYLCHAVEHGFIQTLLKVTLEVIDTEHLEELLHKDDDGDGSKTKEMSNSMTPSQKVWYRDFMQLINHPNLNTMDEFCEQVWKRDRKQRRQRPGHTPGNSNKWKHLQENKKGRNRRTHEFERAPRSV
Description: The growth cone collapse assay and collagen co-culture experiments were performed as previously described. To examine the effects of SM-345431-silicone, small pieces (2 × 1 × 0.3 mm; approximately 1 mg containing 1 μg of SM-345431) of the SM-345431-silicone or control-silicone were placed in a collagen gel adjacent to E8 chick DRGs and COS7 cell aggregates, as shown in Figure 1C.

Mediator release, IL-2 = assay: Pharmacological profile: mediator release; format: cell-based
Source text: (§1) Table 1 Pharmacological profile of SM-345431 (part 1) | column: IC50 (μm)

Mediator release, IL-5 = assay: Pharmacological profile: mediator release; format: cell-based
Source text: as §1

[1] = tested on: Mediator release, TNF-alfa, PBML; assay: Pharmacological profile: mediator release; format: cell-based
Source text: as §1

Mediator release, IL-10 = assay: Pharmacological profile: mediator release; format: cell-based
Source text: as §1

Mediator release, IL-6 = assay: Pharmacological profile: mediator release; format: cell-based
Source text: as §1

Mediator release, IL-4 = assay: Pharmacological profile: mediator release; format: cell-based
Source text: as §1

[2] = tested on: Mediator release, IL-1beta; assay: Pharmacological profile: mediator release; format: cell-based
Source text: as §1

[3] = tested on: Mediator release, IFN-gamma; assay: Pharmacological profile: mediator release; format: cell-based
Source text: as §1

Chemokine CCR4 = Chemokine CCR4 (Homo sapiens, UniProt P51679); assay: Pharmacological profile: receptor binding assay
Source text: as §1

Chemokine CCR5 = Chemokine CCR5 (Homo sapiens, UniProt P51681); assay: Pharmacological profile: receptor binding assay
Source text: as §1

Chemokine CXCR2 (IL-8B) = Chemokine CXCR2 (IL-8B) (Homo sapiens, UniProt P25025); assay: Pharmacological profile: receptor binding assay
Source text: as §1

Chemokine CCR2B = Chemokine CCR2B (Homo sapiens, UniProt P41597); assay: Pharmacological profile: receptor binding assay
Source text: as §1

Chemokine CCR1 = Chemokine CCR1 (Homo sapiens, UniProt P32246); assay: Pharmacological profile: receptor binding assay
Source text: as §1

Glucocorticoid = Glucocorticoid (Homo sapiens, UniProt P04150); assay: Pharmacological profile: receptor binding assay
Source text: as §1

[4] = molecular target: Tumor Necrosis Factor (TNF), Non-selective; assay: Pharmacological profile: receptor binding assay
Source text: as §1

Chain of Chemokine CCR5 (P51681 whole entry): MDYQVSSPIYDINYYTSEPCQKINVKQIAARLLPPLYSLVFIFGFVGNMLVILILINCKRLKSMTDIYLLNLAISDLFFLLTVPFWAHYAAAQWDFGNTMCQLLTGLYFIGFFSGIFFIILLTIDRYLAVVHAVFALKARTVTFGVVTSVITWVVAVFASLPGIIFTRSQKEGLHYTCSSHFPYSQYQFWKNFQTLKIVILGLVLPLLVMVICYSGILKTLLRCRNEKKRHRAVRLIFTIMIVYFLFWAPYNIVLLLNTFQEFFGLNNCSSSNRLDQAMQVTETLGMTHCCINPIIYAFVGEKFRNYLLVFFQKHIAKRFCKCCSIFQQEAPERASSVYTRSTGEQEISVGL
Chain of Chemokine CCR2B (P41597 1-360 isoform P41597-2): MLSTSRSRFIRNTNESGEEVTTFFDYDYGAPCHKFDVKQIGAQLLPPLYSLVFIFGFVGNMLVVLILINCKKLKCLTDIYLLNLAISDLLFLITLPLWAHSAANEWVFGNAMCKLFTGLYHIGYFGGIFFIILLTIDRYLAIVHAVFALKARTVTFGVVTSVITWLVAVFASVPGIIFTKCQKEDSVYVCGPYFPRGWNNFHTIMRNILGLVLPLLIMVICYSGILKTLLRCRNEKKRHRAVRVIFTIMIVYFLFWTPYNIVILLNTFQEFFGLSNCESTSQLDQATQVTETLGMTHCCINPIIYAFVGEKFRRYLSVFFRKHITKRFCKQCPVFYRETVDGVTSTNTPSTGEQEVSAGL
Chain of Glucocorticoid (P04150 whole entry): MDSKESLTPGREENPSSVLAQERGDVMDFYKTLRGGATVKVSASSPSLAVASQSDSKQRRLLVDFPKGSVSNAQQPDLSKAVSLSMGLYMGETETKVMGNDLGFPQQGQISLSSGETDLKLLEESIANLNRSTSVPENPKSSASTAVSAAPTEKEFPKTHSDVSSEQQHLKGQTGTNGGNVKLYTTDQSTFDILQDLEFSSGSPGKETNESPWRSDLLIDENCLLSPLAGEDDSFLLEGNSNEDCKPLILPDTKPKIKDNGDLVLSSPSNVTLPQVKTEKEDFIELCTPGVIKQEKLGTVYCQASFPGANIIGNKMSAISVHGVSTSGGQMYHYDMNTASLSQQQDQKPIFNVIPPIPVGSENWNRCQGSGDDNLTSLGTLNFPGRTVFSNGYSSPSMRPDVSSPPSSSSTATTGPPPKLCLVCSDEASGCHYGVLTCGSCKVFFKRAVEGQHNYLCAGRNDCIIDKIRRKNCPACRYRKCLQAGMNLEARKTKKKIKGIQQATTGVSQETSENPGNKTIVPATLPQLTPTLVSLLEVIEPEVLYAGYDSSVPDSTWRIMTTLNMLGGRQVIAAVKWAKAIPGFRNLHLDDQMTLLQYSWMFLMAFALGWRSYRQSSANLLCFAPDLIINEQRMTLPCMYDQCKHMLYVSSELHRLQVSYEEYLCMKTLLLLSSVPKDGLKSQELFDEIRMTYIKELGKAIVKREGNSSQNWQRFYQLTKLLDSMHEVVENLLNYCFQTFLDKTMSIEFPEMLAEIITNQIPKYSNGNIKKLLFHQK
Chain of Chemokine CXCR2 (IL-8B) (P25025 whole entry): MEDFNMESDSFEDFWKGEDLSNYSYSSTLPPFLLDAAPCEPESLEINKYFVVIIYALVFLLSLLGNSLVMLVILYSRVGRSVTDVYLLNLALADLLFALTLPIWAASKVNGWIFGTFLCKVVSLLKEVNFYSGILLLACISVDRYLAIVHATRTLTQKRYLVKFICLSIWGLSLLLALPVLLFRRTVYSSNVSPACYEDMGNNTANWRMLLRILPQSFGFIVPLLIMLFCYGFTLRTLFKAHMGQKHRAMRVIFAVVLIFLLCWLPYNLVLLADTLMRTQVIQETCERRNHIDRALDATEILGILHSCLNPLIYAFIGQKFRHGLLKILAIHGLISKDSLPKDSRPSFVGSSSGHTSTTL
Chain of Chemokine CCR1 (P32246 whole entry): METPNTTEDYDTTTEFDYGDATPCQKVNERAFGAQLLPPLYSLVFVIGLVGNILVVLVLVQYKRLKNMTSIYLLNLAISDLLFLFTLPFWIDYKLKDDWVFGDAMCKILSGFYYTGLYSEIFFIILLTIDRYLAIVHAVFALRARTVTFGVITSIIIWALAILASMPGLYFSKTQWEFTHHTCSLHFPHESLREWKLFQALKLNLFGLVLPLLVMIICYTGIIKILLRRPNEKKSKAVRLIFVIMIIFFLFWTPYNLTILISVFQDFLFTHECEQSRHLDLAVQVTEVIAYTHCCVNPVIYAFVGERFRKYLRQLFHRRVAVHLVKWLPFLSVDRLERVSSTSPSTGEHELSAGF
Chain of Chemokine CCR4 (P51679 whole entry): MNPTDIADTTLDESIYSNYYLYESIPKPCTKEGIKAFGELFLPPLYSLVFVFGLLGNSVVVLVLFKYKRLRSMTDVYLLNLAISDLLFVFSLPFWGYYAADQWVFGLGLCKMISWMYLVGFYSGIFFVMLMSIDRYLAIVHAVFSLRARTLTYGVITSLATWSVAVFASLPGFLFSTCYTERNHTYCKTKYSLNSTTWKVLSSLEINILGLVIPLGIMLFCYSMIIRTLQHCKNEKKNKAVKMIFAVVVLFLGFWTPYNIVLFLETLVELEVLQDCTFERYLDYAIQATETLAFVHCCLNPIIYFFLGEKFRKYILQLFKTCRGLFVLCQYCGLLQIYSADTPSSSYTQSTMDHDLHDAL

Question: With `CC(=O)c1cc2c(=O)c3c(C(=O)O)c(O)c(O)cc3oc2c(C(C)=O)c1-c1coc2cc(O)c(O)c(C(=O)O)c2c1=O` [SM-345431, Vinaxanthone] as the compound, how does the IC50 (semaphorin3A) read?
Answer: Its IC50 is 0.1 to 0.2 µM.

Question: What about the IC50 (Mediator release, IL-2) of the same compound?
Answer: The IC50 was > 10 µM.

Question: And the IC50 (Mediator release, IL-5)?
Answer: Its IC50 is > 10 µM.

Question: And the IC50 [1]?
Answer: Its IC50 is > 10 µM.

Question: What about the IC50 (Mediator release, IL-10) of the same compound?
Answer: The IC50 was > 10 µM.

Question: And the IC50 (Mediator release, IL-6)?
Answer: The IC50 was > 10 µM.

Question: What about the IC50 (Mediator release, IL-4) of the same compound?
Answer: The IC50 was > 10 µM.

Question: And the IC50 [2]?
Answer: The IC50 was > 10 µM.

Question: What about the IC50 [3] of the same compound?
Answer: Its IC50 is > 10 µM.

Question: And the IC50 (Chemokine CCR4)?
Answer: Its IC50 is > 10 µM.

Question: And the IC50 (Chemokine CCR5)?
Answer: The IC50 was > 10 µM.

Question: What about the IC50 (Chemokine CXCR2 (IL-8B)) of the same compound?
Answer: The IC50 was > 10 µM.

Question: What about the IC50 (Chemokine CCR2B) of the same compound?
Answer: The IC50 was > 10 µM.

Question: What about the IC50 (Chemokine CCR1) of the same compound?
Answer: The IC50 was > 10 µM.

Question: What about the IC50 (Glucocorticoid) of the same compound?
Answer: The IC50 was > 10 µM.

Question: And the IC50 [4]?
Answer: Its IC50 is > 10 µM.
